“Also recorded” adds a separate entry of the source.

For experiment [1], the system named is T cell hybridomas 45G10 (specific for 103-115 poliovirus peptide). Type of experiment: cell-based.
The subject of another experiment is MLS128 mAb. It is filed as binding, mouse.
Experiment [2] concerns T cell hybridoma 45G10 specific for PV. It is filed as cell-based.
Experiment [3] concerns human Jurkat tumor cell line. The conditions noted are these: in vivo.
Experiment [4] relates to Tn3G6K(Biot)G glycopeptide. Set-up: species or system BALB/c mice. The conditions noted are these: mouse, in vivo.
The test system of another experiment is STTG6K(Biot)G peptide. Set-up: species or system BALB/c mice. The note with it: mouse, in vivo.
In experiment [5] the test system is MLS 128 (IgG) anti-Tn monoclonal antibody. Type of experiment: binding, mouse.
Another experiment has as its system lymph node (LN) cells. Set-up: species or system BALB/c mice. The note with it: mouse, in vivo, sc.
Another experiment deals with Tn antigen (BT-TT1). Set-up: species or system BALB/c mice. The conditions noted are these: mouse, in vivo.

Regarding αGalNac-Ser [B], in [1], the “stimulation of IL-2 production by the T hybridoma” value was “do not stimulate”.
(S*T*T*G)2KLFAVWKITYKDT [Tn6-PV]: in the experiment on MLS128 mAb, the “inhibition of MLS128 binding to Tn3G6K(Biot)G” value was “significant enhancement of the antigenicity”. Besides, in [2], the “increase of antigenicity of the T cell epitope compared to unglycosylated PV peptide” value is on record as roughly 100 fold and the “stimulation of the 45G10 T cell hybrid” value is given as “stimulate”. In experiment [3], the “binding of sera to Jurkat cells” value was “bound this human cell line” and the “recognition of Jurkat cells / antibody production relative to Tn3-PV” value was “better; also recorded: significant benefit”. Moreover, in [4], the “anti-Tn IgG antibodies” value is reported as “induced anti-Tn IgG antibodies” and the “anti-Tn IgM antibodies” value is on record as “detected”. Also, the “sera binding to unglycosylated STTG6K(Biot)G peptide” value in the experiment with STTG6K(Biot)G peptide is given as “No sera binding was observed”. Further, in experiment [5], the “recognition of the Tn motif by the MLS 128 mAb, direct ELISA” value (“recognition of the Tn motif” below) is given as “efficiently recognized”.
S*T*T*QYIKANSKIGITEL [Tn3-TT]: in the experiment on MLS128 mAb, the “inhibition of MLS128 binding to Tn3G6K(Biot)G” value is given as “only slightly affected”. Besides, in [5], the “recognition of the Tn motif” value is recorded as “efficiently recognized”.
In the case of “STTGGGGGGKG [STTG6KG, reference compound]”, the “competition with a-OSM for MLS 128 binding” value in the experiment on MLS128 mAb is recorded as “does not”.
Consider KLFAVWKITYKDT [PV, reference compound], for which the “stimulation of the 45G10 T cell hybrid” value in experiment [2] was “stimulate”. Also, the “recognition by PV-specific T-cell hybridoma” value in experiment [1] is recorded as “recognize”. Besides, the “anti-Tn IgG antibodies” value in experiment [4] is “no Tn specific antibodies were detected”. In addition, the “sera binding to unglycosylated STTG6K(Biot)G peptide” value in the experiment on STTG6K(Biot)G peptide is on record as “No sera binding was observed”. For the same substance, in the experiment on lymph node (LN) cells, the “proliferative T response specific for the T epitope” value is listed as “induce in vivo a proliferative T response”. Besides, the “induction of anti-Tn antibodies” value in the experiment on Tn antigen (BT-TT1) was “not”. Further, in [5], the “recognition of the Tn motif” value is listed as “are not”.
